# Experimental data reported in PubChem BioAssay AID2610 (Broad Institute, 2010).
# Results filed as inconclusive are left out. Activity calls are given as the source filed them.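 How the source made its calls: active means EC50 no more than tenfold above the top concentration tested, with valid fit and all samples agreeing; inconclusive means flat fit at 30 to 70% inhibition, poor fit, or split samples; inactive means EC50 beyond tenfold the top concentration tested.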
# Tested on: BJeLR fibroblast viability, Alamar Blue fluorescence, 48 h
# Test: BJeLR fibroblast growth inhibition, viability readout – cell-based, alamar blue fluorescence, 48 h, cherrypicked samples, dose response (AID 2610);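 further: BJ fibroblasts with hTERT plus SV40 large and small T and HRAS V12; EC50 for loss of viable cells so potency reflects cytotoxic compounds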
row,Compound,EC50
1,COc1ccc(/C=N/NC(=O)c2[nH]c3ccc(Br)cc3c2-c2ccccc2)cc1,< 70.3 nM
2,COc1ccc(C[C@H]2NC[C@H](O)[C@H]2OC(C)=O)cc1,< 64.7 nM
3,Cc1cccc(Nc2nc(N)nc(CCl)n2)c1C,468 nM
4,C[C@H]1O[C@@H](O[C@H]2[C@@H](O)C[C@H](O[C@H]3[C@@H](O)C[C@H](O[C@H]4CC[C@@]5(C)[C@H](CC[C@@H]6[C@@H]5C[C@@H](O)[C@]5(C)[C@@H](C7=CC(=O)OC7)CC[C@]65O)C4)O[C@@H]3C)O[C@@H]2C)C[C@H](O)[C@@H]1O,< 104 nM
5,COc1ccc(C(=O)c2cc([N+](=O)[O-])ccc2N2CCOCC2)cc1,< 104 nM
6,CC(C)C(=O)Nc1ccc(C(=O)NCc2cccnc2)cc1,742 nM
7,COc1ccc(C(=O)N/N=C(\C)c2ccccn2)cc1OC,795 nM
8,COCCCNC(=O)c1ccc2c3c(onc13)-c1ccccc1C2=O,3150 nM
9,O=C(/C=C\c1ccco1)Nc1cc([N+](=O)[O-])ccc1F,256 nM
10,COc1cc([C@H]2c3[nH]c4ccccc4c3C[C@H]3C(=O)N4[C@@H](c5cc(OC)c(OC)c(OC)c5)c5[nH]c6ccccc6c5C[C@H]4C(=O)N23)cc(OC)c1OC,> 13300 nM (inactive)
11,CC1CCCN(c2ccc([N+](=O)[O-])cc2C(=O)c2ccccc2)C1 (stereo unspecified),< 104 nM
12,Cc1cc2nc(/C=C/c3cccnc3)[nH]c2cc1C,< 104 nM
13,CC(C)[C@]12O[C@H]1[C@@H]1O[C@]13[C@]1(O[C@H]1C[C@H]1C4=C(CC[C@@]13C)C(=O)OC4)[C@@H]2O,< 104 nM
14,S=c1nc[nH]c2nc[nH]c12,> 13300 nM (inactive)
15,Cc1ccc(/C=N/NC(=O)c2cc(-c3ccncc3)nc3ccccc23)o1,685 nM
16,COc1ccc2[nH]c(=O)c(CN(Cc3cccs3)S(=O)(=O)c3cccc4nsnc34)cc2c1,1460 nM
17,CCN(CC)Cc1c(O)ccc2c1O/C(=C\C=C\c1ccccc1)C2=O,> 13300 nM (inactive)
18,Cc1ccc(N2C(=O)c3cccc4c([N+](=O)[O-])ccc(c34)C2=O)c2cccnc12,523 nM
19,COc1cccc2c1C(=O)c1c(O)c3c(c(O)c1C2=O)C[C@@](O)(C(=O)CO)C[C@@H]3O[C@H]1C[C@H](N)[C@H](O)[C@H](C)O1,< 104 nM
20,COc1ccc(N(C(=O)CCl)C(C(=O)NCCc2ccccc2)c2cccs2)cc1 (stereo unspecified),428 nM
21,Cc1cc(C)c2nc(C)cc(N/N=C/c3ccc(O)cc3)c2c1,575 nM
22,O=C(NC(Nc1nc2ccc([N+](=O)[O-])cc2s1)(C(F)(F)F)C(F)(F)F)c1ccccc1,239 nM
23,O=C1c2cccc3cc([N+](=O)[O-])cc(c23)C(=O)N1CCN1CCCC1,409 nM
24,C/C(=N\Nc1ccc2nncn2n1)c1ccccn1,1140 nM
25,COc1cccc2c1C(=O)c1c(O)c3c(c(O)c1C2=O)C[C@@](O)(C(=O)CO)C[C@@H]3O[C@H]1C[C@H](N)[C@@H](O)[C@H](C)O1,< 104 nM
26,CCN1/C(=C/C(C)=C/c2sc3ccccc3[n+]2CC)Sc2ccccc21,152 nM

row,Compound,EC50
1,COc1cc([C@@H]2c3cc4c(cc3[C@@H](NC3CCN(Cc5ccccc5)CC3)[C@H]3COC(=O)[C@H]23)OCO4)cc(OC)c1O,133 nM
2,CCN(CC)c1ccc(/C=N/NC(=O)c2nnn(-c3nonc3N)c2C(C)C)c(O)c1,565 nM
3,CCc1ccc(CCC(=O)Nc2ncc(Cc3ccccc3Cl)s2)o1,1060 nM
4,COC(=O)c1cccc(Nc2c3c(nc4ccccc24)CCC3)c1,2600 nM
5,O=C(NCCCn1ccnc1)c1ccc(N2CCCCCC2)c([N+](=O)[O-])c1,6680 nM
6,CCN(CC)c1ccc2c(cc1=O)[C@@H](NC)CCc1cc(OC)c(OC)c(OC)c1-2,380 nM
7,Cc1ccc(-c2nn(CC(=O)NCc3cc(-c4nn(C)c(=O)c5ccccc45)ccc3C)c(=O)c3ccccc23)cc1,> 13300 nM (inactive)
8,O=C(Oc1ccc(-c2nc(-c3ccccn3)no2)cc1)c1ccccc1,> 13300 nM (inactive)
9,CC[C@@]1(O)C(=O)OCc2c1cc1n(c2=O)Cc2cc3c(NC(=O)CN)cccc3nc2-1,292 nM
10,Cc1occc1C(=O)N/N=C/c1ccc(-c2ccccc2)cc1,> 13300 nM (inactive)
11,O=C(NCCOc1cccnc1)c1ccc(OC2CCN(Cc3ccccn3)CC2)cc1,< 91.9 nM
12,CCCc1cc(=O)[nH]c(SCC(=O)c2c(N)n(CC(C)C)c(=O)n(C)c2=O)n1,> 13300 nM (inactive)
13,COc1cccc(CSc2nc3ccccc3cc2C=O)c1,111 nM
14,Nc1nc(N)c2c(ccc3nccc32)[nH]1,> 13300 nM (inactive)
15,CCN1C(=O)C(=Cc2cccc(OC)c2Oc2ccc([N+](=O)[O-])cc2[N+](=O)[O-])SC1=S,1050 nM
16,N#CC(C#N)=NNc1ccc(-n2ccc(C(F)(F)F)n2)cc1,2650 nM
17,COc1ccccc1N(C(=O)CCl)c1cn(C(C)=O)c2ccccc12,717 nM
18,C=C1C(=O)O[C@@H]2C[C@@H](C)[C@@H]3C=CC(=O)[C@@]3(C)[C@@H](OC(=O)CC(=O)O[C@H]3[C@@H]4C(=C)C(=O)O[C@@H]4C[C@@H](C)[C@@H]4C=CC(=O)[C@]43C)[C@H]12,< 41.7 nM
19,c1ccc(-c2noc(-c3ccc4c(c3)OCO4)n2)nc1,> 13300 nM (inactive)
20,O=C1N(c2ccccc2)C[C@@H]2C[C@@H](c3cc4ccccc4o3)N3CCC[C@@]123,610 nM
21,COc1ccc2nc(NC(=O)c3ccoc3C)sc2c1,> 13300 nM (inactive)
22,O=C(/C=C/c1ccco1)Nc1ccc(Oc2ccccc2)cc1,> 13300 nM (inactive)
23,CCOC(=O)/C(=C\c1ccc([N+](=O)[O-])cc1)C(=O)c1cc(C(C)=O)c(Nc2ccccc2)s1,958 nM
24,Cc1onc(C(=O)N2CCN(C(c3ccccc3)c3ccccc3)CC2)c1[N+](=O)[O-],762 nM
25,Cc1cccc(NS(=O)(=O)c2ccc(-c3cnc(C4CC4)o3)cc2)c1C,< 104 nM
